“Also recorded” adds a separate entry of the source.

For data set [1], the target named is T1, Recombinant CysLite PTGES3 (cysteine 76) (Homo sapiens, UniProt Q15185).
T1 sequence (Q15185 1-160): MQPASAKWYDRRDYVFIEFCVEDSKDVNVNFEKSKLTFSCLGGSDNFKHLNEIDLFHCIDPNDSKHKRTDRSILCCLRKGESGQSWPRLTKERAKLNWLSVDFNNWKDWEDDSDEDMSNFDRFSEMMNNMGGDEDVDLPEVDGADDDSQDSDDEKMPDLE
The experiment in a line: Dose response assay: labeling of recombinant CysLite PTGES3 by intact protein mass spectrometry. In kind it is binding. The note with it: 100 uM BME, 1 μM protein, 1 h ambient temperature; read-out: EC50 with 100 uM BME competitor (half maximal labeling of cyslite PTGES3). As to the method: Recombinant CysLite PTGES3 (1 μM, 50 mM Tris-HCl, pH 8.0, 150 mM NaCl and 100 μM βME) were incubated for 1 h at ambient temperature with lead fragments (4% DMSO) in a 7-, 8- or 9-point threefold serial dilution series in duplicate. Reactions were quenched by the addition of formic acid to a final concentration of 0.4%. Labeling was determined by intact protein mass spectrometry.

For data set [2], the system named is Recombinant CysLite PTGES3. Description: BME competition assay: labeling of CysLite PTGES3 at high BME competitor. In kind it is binding. Particulars: 200 uM compound. As to the method:
Recombinant CysLite PTGES3 (1 μM, 50 mM Tris-HCl, pH 8.0, 150 mM NaCl) were incubated with 200 μM fragment (2% DMSO) and 500 μM or 1 mM BME at ambient temperature for 8 h. Reactions were quenched by the addition of formic acid to a final concentration of 0.4%. Labeling was determined by intact protein mass spectrometry.

In data set [3] the test system is Recombinant CysLite PTGES3. The experiment in a line: Differential scanning fluorimetry (thermal shift) of fully labeled CysLite PTGES3. Particulars: cyslite PTGES3 fully labeled with compound. The class given is binding. As to the method: Recombinant […] PTGES3 at a concentration of 8 μM in 50 mM HEPES pH 7.5, 150 mM NaCl were incubated with compounds or DMSO for unlabeled comparisons, at ambient temperature until complete labeling was observed by intact protein mass spectrometry. 7K Zeba Desalting columns (ThermoFisher) were used to remove excess compound. The Zeba 7K columns were first preequilibrated with 50 mM HEPES (pH 7.5), 150 mM NaCl. Sypro Orange (500x, DMSO) was added to the purified protein-small molecule conjugates to a final concentration of 5x Sypro Orange. These DSF assays were performed in triplicate in white 96-well plates. The plate was sealed with optically clear PCR sealing film (USA Scientific). The thermal shift assay was performed on a Bio-Rad CFX qPCR instrument. The temperature was increased from 23° C. to 95° C. at a rate of 0.5° C./s. After each temperature step, fluorescence was monitored with an excitation of 492 nm and emission of 610 nm. Raw fluorescence values were normalized between 0 and 1 and fit to a Boltzman equation using GraphPad Prism with the maximum value of the fit constrained to 1.

The next data set deals with PTGES3-AR interaction. Description: Far western blot of AR-PTGES3 interaction. In kind it is biochemical. Particulars: CysLite PTGES3 pre-modified with compound. As to the method:
Flag-AR was loaded on a gel, transferred to membrane, and renatured. The membranes were incubated with recombinant CysLite PTGES3 protein or recombinant CysLite PTGES3 protein labeled with 1. The interaction was detected with PTGES3 antibody. […] Each blot experiment was performed twice to determine reproducibility.

Data set [4] deals with PTGES3 enhanced AR/ARE binding. The experiment in a line: AR/ARE gel shift (EMSA) assay. In kind it is biochemical. The note with it: DHT+ buffer, free ARE DNA detected by SYBR gold. As to the method:
The reactions were then loaded on a DNA retardation gel. ARE DNA bands were detected by SYBR gold. […] Experiment was performed twice to determine reproducibility.
Electrophoretic mobility shift assays (EMSA) were performed using recombinant AR protein (EMD Millipore) and 3×ARE dsDNA from the ARR3TK plasmid. Protein-DNA complexes were allowed to incubate in room temperature for 30 min in loading buffer (20 mM HEPES, 100 mM KCl, 2 ng/ml poly(dI-dC), 10% glycerol, and 20 nM DHT), followed by electrophoresis on 6% DNA Retardation Gels in TBE buffer (PH 8.0). Visualization of protein-DNA complexes was performed with SYBR Gold DNA staining dye (Invitrogen).
A general note: Mobility shift assays separate free from complexed probe on a gel.

Data set [5] is described as follows: Parallel artificial membrane permeability assay (PAMPA). The class given is in vitro ADME. Background: The PAMPA barrier holds no transporters, so it reflects passive diffusion.
Another data set relates to AR+ LNCaP cells. The experiment in a line: Cell growth of AR+ LNCaP cells. In kind it is cell-based. As to the method:
(§1) Normalized to DMSO and analyzed by IncuCyte system (n=3 as biological replicates; Mean±SEM).
(§2) Compounds were tested at 100 uM for the ability to label cysteine 76 of cyslite PTGES3. In some cases labeling was not detected. Cyslite PTGES3 was then fully labeled with the compounds and the thermal shift values of the fully labeled protein was determined with stabilization values indicated below. […] Finally, select compounds were tested to determine if they inhibited cell growth in AR+LNCaP cells.
LNCaP cell lines were grown in the RPMI 1640 medium (Gibco) supplemented with 10% fetal bovine serum (FBS; Gibco). Cells were grown in a humidified 5% CO2 incubator at 37° C.

In a further data set the test system is AR-independent PC3 cells. Description: Cell growth of AR-independent PC3 cells. In kind it is cell-based. As to the method: as §1
Fold change of cell count normalized over day 0 was analyzed by IncuCyte system (n=3 as biological replicates; Mean SEM). Unpaired two-tailed t-test was used to determine statistical significance (ns=no significant difference; *** P<0.001).

The test system of data set [6] is AR protein levels, LNCaP cells. The experiment in a line: AR protein levels in LNCaP cells by western blotting. In kind it is cell-based. Particulars: 100 μM, 48 h, nuclear AR, western blot. As to the method: Nuclear AR and TBP levels were detected by western blotting. Each western blot experiment was performed twice to determine reproducibility.
In general terms: In western blotting, separated proteins are transferred to a membrane and probed.

In data set [7] the test system is AR target genes, LNCaP cells. Description: AR target gene mRNA levels in LNCaP cells by real-time PCR. In kind it is cell-based. The note with it: 100 μM, 48 h, mRNA over 18s rRNA. As to the method:
RNA was collected, indicated genes mRNA levels over 18s rRNA were measured by real-time PCR (n=3 as biological replicates; Mean±SEM).

In data set [8] the test system is cysteine 76 of cyslite PTGES3. The experiment in a line: Labeling of cysteine 76 of cyslite PTGES3 at 100 uM compound. In kind it is binding. As to the method: as §2

As a reminder, the EC50 is the concentration giving half of the maximal effect. As for `CN(C)CCSSCCNC(=O)[C@@H]1CN(C(=O)c2cc(F)c(O)c(Cl)c2)C[C@H]1c1ccccc1` (racemic) [Compound 1], the EC50 in [1] was 70.6 µM. Moreover, in [2] (500 uM BME), the “% Labeling in presence of 500 uM BME competitor” value amounted to 79.03%. For the same molecule, the “% Labeling in presence of 1 mM BME competitor” value in data set [2] (1 mM BME) worked out at 76.67%. Further, the “Thermal Shift (Cyslite PTGES3) ΔTm” value in [3] is “confirmed by DSF to stabilize CysLite PTGES3”; in data set [3] (listed as compound 1) it was 1.6 °C. In the data set on PTGES3-AR interaction, the “PTGES3-AR interaction (far western blot)” value is given as “ablated in vitro PTGES3-AR interaction; also recorded: disrupted the PTGS3-AR interaction”. In addition, in data set [4], the “PTGES3 enhanced AR/ARE binding (gel shift)” value is “inhibited PTGES3 enhanced AR/ARE binding; also recorded: increases the free ARE levels”.
With `COC(=O)[C@@H]1CN(C(=O)c2cc(F)c(O)c(Cl)c2)C[C@H]1c1ccccc1` (racemic) [Compound 2], the PAMPA assay result in [5] was “Permeable”. In addition, the “AR + cell line activity (growth of AR-driven LNCaP cells)” value with AR+ LNCaP cells was “significantly reduced and inhibit cell proliferation in AR+ and Yes”. Also, the “Growth of AR-independent PC3 (AR−) cells” value in the data set with AR-independent PC3 cells is given as “not AR-independent PC3 cells; also recorded: not AR− negative cell lines”. For the same molecule, in data set [6], the AR protein levels entry is “significantly reduced”. The “Expression of AR target genes” value in data set [7] is reported as “significantly reduced”.
`C=CS(=O)(=O)N[C@@H]1CN(C(=O)c2cc(F)c(O)c(Cl)c2)C[C@H]1c1ccccc1` [Compound 3]: the “Thermal Shift (Cyslite PTGES3) ΔTm” value in [3] is “ΔTm + 3.3 °C”. In data set [8], the “4 h labeling (100 uM)” value is 5.27% and the “24 h labeling (100 uM)” value came to 28.15%.
For `C=CS(=O)(=O)N[C@@H]1CN(C(=O)c2ccccc2)C[C@H]1c1ccccc1` [Compound 4], in data set [3], the “Thermal Shift (Cyslite PTGES3) ΔTm” value is “ΔTm + 1.9 °C”. For the same molecule, in [8], the “4 h labeling (100 uM)” value is listed as 4.01% and the “24 h labeling (100 uM)” value is 20.75%.
With `C=CS(=O)(=O)N[C@@H]1CN(C(=O)c2ccc(O)cc2)C[C@H]1c1ccccc1` [Compound 5], in data set [8], the “4 h labeling (100 uM)” value was 4.71% and the “24 h labeling (100 uM)” value came to 35.51%.
As for `C=CS(=O)(=O)N[C@@H]1CN(C(=O)c2ccc(S(N)(=O)=O)cc2)C[C@H]1c1ccccc1` [Compound 6], in data set [3], the “Thermal Shift (Cyslite PTGES3) ΔTm” value is “ΔTm + 3.0 °C”. Also, in the data set on AR+ LNCaP cells, the “Cell activity (inhibited cell growth in AR+ LNCaP cells)” value was “Yes”. Moreover, in data set [8], the “4 h labeling (100 uM)” value amounted to 9.61% and the “24 h labeling (100 uM)” value was 44.20%.
Turning to `C=CS(=O)(=O)N[C@@H]1CN(C(=O)c2ccc(S(=O)(=O)NC)cc2)C[C@H]1c1ccccc1` [Compound 7], in data set [3], the “Thermal Shift (Cyslite PTGES3) ΔTm” value was “ΔTm + 2.1 C. ° C”. Further, in data set [8], the “4 h labeling (100 uM)” value is reported as 7.21% and the “24 h labeling (100 uM)” value came to 36.40%.
Take `C=CS(=O)(=O)N[C@@H]1CN(C(=O)c2cc(F)cc(Cl)c2)C[C@H]1c1ccccc1` [Compound 8]: in [8], the “4 h labeling (100 uM)” value was “Not detected” and the “24 h labeling (100 uM)” value was 14.74%.
With `C=CS(=O)(=O)N[C@@H]1CN(C(=O)c2ccc(S(N)(=O)=O)c(F)c2)C[C@H]1c1ccccc1` [Compound 9], the “Thermal Shift (Cyslite PTGES3) ΔTm” value in [3] is “ΔTm + 3.3 °C”. Also, the “Cell activity (inhibited cell growth in AR+ LNCaP cells)” value in the data set with AR+ LNCaP cells is “Yes”. Further, in [8], the “4 h labeling (100 uM)” value is 12.38% and the “24 h labeling (100 uM)” value is listed as 51.4%.
Consider `C=CS(=O)(=O)N[C@@H]1CN(C(=O)c2ccc(S(N)(=O)=O)c(Cl)c2)C[C@H]1c1ccccc1` [Compound 10], for which the “Thermal Shift (Cyslite PTGES3) ΔTm” value in data set [3] is “ΔTm + 3.3 °C”. Also, in data set [8], the “4 h labeling (100 uM)” value is on record as “Not detected” and the “24 h labeling (100 uM)” value came out at 27.44%.
Regarding `C=CS(=O)(=O)N[C@@H]1CN(C(=O)c2cccc(S(N)(=O)=O)c2)C[C@H]1c1ccccc1` [Compound 11], the “Thermal Shift (Cyslite PTGES3) ΔTm” value in [3] is “ΔTm + 0.4 °C”. In addition, the “Cell activity (inhibited cell growth in AR+ LNCaP cells)” value with AR+ LNCaP cells is “Yes”. Further, in [8], the “4 h labeling (100 uM)” value is listed as 17.84% and the “24 h labeling (100 uM)” value amounted to 72.62%.
On to `C=CS(=O)(=O)N1CCN(C(=O)[C@@H]2CN(C(=O)c3ccc(S(N)(=O)=O)c(F)c3)C[C@H]2c2ccccc2)CC1` [Compound 12], for which the “Thermal Shift (Cyslite PTGES3) ΔTm” value in data set [3] is “No stabilization”. Also, in data set [8], the “4 h labeling (100 uM)” value was found to be 6.27% and the “24 h labeling (100 uM)” value worked out at 36.65%.
For the molecule `C=CS(=O)(=O)NCCNC(=O)[C@@H]1CN(C(=O)c2ccc(S(N)(=O)=O)c(F)c2)C[C@H]1c1ccccc1` [Compound 13], the “Thermal Shift (Cyslite PTGES3) ΔTm” value in [3] is “No stabilization”. Besides, in [8], the “4 h labeling (100 uM)” value was “Not detected” and the “24 h labeling (100 uM)” value came out at 13.63%.
As to `C=CS(=O)(=O)NC1CN(C(=O)[C@@H]2CN(C(=O)c3ccc(S(N)(=O)=O)c(F)c3)C[C@H]2c2ccccc2)C1` [Compound 14], the “Thermal Shift (Cyslite PTGES3) ΔTm” value in data set [3] was “No stabilization”. Further, the “Cell activity (inhibited cell growth in AR+ LNCaP cells)” value with AR+ LNCaP cells was “No”. For the same molecule, in data set [8], the “4 h labeling (100 uM)” value was determined as 7.18% and the “24 h labeling (100 uM)” value worked out at 48.46%.
In the case of `CN(C)CCSSCCNC(=O)[C@@H]1CN(C(=O)c2cc(F)c(O)c(Cl)c2)C[C@H]1c1ccccc1` [Compound 994364], the “Thermal Shift (Cyslite PTGES3) ΔTm” value in data set [3] is reported as “increases the thermal melt temperature”.
